In PubChem BioAssay (NCI):
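Values below derive from 48-hour exposures of cells grown in 96-well plates, with endpoints linearly interpolated between the two concentrations bracketing the appropriate inhibition level. GI50 is the concentration that inhibits growth by half. TGI is the concentration that stops growth completely.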

Tests used:
Assay in all cases: NCI tumour cell line growth inhibition, 48 h
[1] = tested on: 786-0 renal
[2] = tested on: UO-31 renal
[3] = tested on: MALME-3M melanoma
[4] = tested on: HL-60(TB) leukemia
[5] = tested on: SF-539 CNS
[6] = tested on: SK-MEL-2 melanoma
[7] = tested on: NCI/ADR-RES ovarian
[8] = tested on: EKVX NSCLC
[9] = tested on: T-47D breast
[10] = tested on: OVCAR-4 ovarian

| SMILES | TGI [1] [µM] | TGI [2] [µM] | TGI [3] [µM] | TGI [4] [µM] | TGI [5] [µM] | TGI [6] [µM] | TGI [7] [µM] | TGI [8] [µM] | TGI [9] [µM] | TGI [10] [µM] | GI50 [9] [µM] | GI50 [10] [µM] | GI50 [5] [µM] | GI50 [6] [µM] | GI50 [7] [µM] | GI50 [8] [µM] |
| --- | --- | --- | --- | --- | --- | --- | --- | --- | --- | --- | --- | --- | --- | --- | --- | --- |
| O=C(CN1CCCC1=O)CS(=O)(=O)c1ccccc1 | > 100 | > 100 | > 100 | > 100 | > 100 | > 100 | > 100 | > 100 |  |  |  |  |  |  |  |  |
| CCC12CCCN(Cc3ccccc3)C1c1c(n(C)c3ccccc13)C(CO)C2 (stereo unspecified) | 79.5 |  | 84.6 | 169 | 73.9 | 107 |  | 245 |  |  |  |  |  |  |  |  |
| COc1cc(C2c3cc4c(cc3OC(NNC(N)=O)C2C)OCO4)cc(OC)c1OC (stereo unspecified) | > 100 | > 72.6 | > 100 |  | 0.165 | > 100 | > 100 | 99.7 | > 100 | > 100 |  |  |  |  |  |  |
| Cc1ccccc1NC(=O)Cc1csc(N/N=C2\NC(=O)/C(=C/c3cccc([N+](=O)[O-])c3)S2)n1 | > 100 | 25.8 |  | 39.5 | 33.4 | 71.1 | > 100 | 32.8 | 55.1 | 44.2 |  |  |  |  |  |  |
| Fc1ccc(-c2sc(-c3ccsc3)cc2Cc2ccsc2)cc1 | > 10 |  | > 10 | > 10 |  |  |  | > 10 | > 10 | > 10 |  |  |  |  |  |  |
| COc1cc(C2S/C(=C/c3ccccc3)C(=O)N2Cc2ccccc2)cc(OC)c1OC (stereo unspecified) | > 100 | > 100 |  | > 100 |  | > 100 | > 100 | > 100 | 41.1 | > 100 |  |  |  |  |  |  |
| CC[C@@]1(O)C[C@H](OC2CC(N(C)C)C(O)C(C)O2)c2c(cc3c(c2O)C(=O)c2c(O)ccc(O)c2C3=O)[C@H]1C(=O)OC (stereo partly specified) |  | 1 | 0.304 | 0.218 | 0.41 | 0.354 | 0.619 | 0.526 |  | 0.0918 |  |  |  |  |  |  |
| O=c1c2c3c(sc2nc2n1N=CN(c1ccccc1)C2)CCCC3 | > 100 | > 100 | > 100 |  |  | > 100 | > 100 | > 100 | > 100 | > 100 |  |  |  |  |  |  |
| CNC(=O)N(CCC#N)CCN(C(=O)NC)c1ccccc1 | > 100 | > 100 | > 100 |  | > 100 | > 100 | > 100 | > 100 | > 100 | > 100 |  |  |  |  |  |  |
| COC(=O)CN(CC(=O)NCCCBr)C1CCCCC1N(CC(=O)OC)CC(=O)OC (stereo unspecified) | > 100 | > 100 |  | > 100 | > 100 | > 100 | > 100 | > 100 | > 100 | > 100 |  |  |  |  |  |  |
| COc1ccccc1NC(=S)N=Nc1c(O)[nH]c2ccccc12 | > 100 | > 100 | > 100 |  | > 100 | > 100 | > 100 | > 100 | > 100 | > 100 |  |  |  |  |  |  |
| Cc1nn(C(=O)c2ccccc2O)c2c1C(c1ccc(O)cc1O)SC(N)=N2 (stereo unspecified) | > 10 | 8.02 | > 10 | > 10 | > 10 | > 10 | 9.33 | > 10 |  | > 10 |  |  |  |  |  |  |
| Cc1cc(=O)oc2cc(OCCCOc3ccc4c(C)cc(=O)oc4c3)ccc12 | > 100 | > 100 | > 100 | > 100 | > 100 | > 100 |  | > 100 |  | > 100 |  |  |  |  |  |  |
| CCC(C)(C)c1cc(O)c(C(C)(C)CC)cc1O |  |  |  |  | 9.23 | 4.33 | 11.3 | 14.6 | 19.5 | 14.1 | 4.56 | 3.26 | 2.7 | 1.85 | 2.96 | 2.54 |
| CC(C)(C)N/N=C(\C(=O)Nc1cccc(Cl)c1)C1C(=O)Nc2ccccc2S1=O (stereo unspecified) | > 100 | > 100 | 47.4 | > 100 | > 100 | > 100 |  | > 100 |  | > 100 |  |  |  |  |  |  |
| CN(C)C(=O)Oc1c(Br)cc(Br)cc1C(=O)OCc1ccccc1 |  | 68.9 | 55.3 | 49.9 | 53.4 | > 71.2 | 51.8 | > 100 |  | > 100 |  |  |  |  |  |  |
| O=c1[nH]c2ccccc2c(O)c1Cc1ccccc1 | > 100 |  | > 100 | > 100 | > 100 |  | > 100 | > 100 |  | > 100 |  |  |  |  |  |  |
| Cn1c(-c2ccc[se]2)ccc1-c1ccc(C=O)[se]1 | > 100 | > 100 |  | > 100 | 23 | > 100 | 9.13 | > 100 | 12.4 | > 61.1 |  |  |  |  |  |  |
| COC(C/C(=C/CO[Si](C(C)C)(C(C)C)C(C)C)C(=O)N(C(=O)OC(C)(C)C)c1ccccc1I)OC | > 100 | > 100 |  |  |  | 37.5 | > 100 |  | > 100 | > 100 |  |  |  |  |  |  |
| CC1(C)OC[C@H](C(=N)OCc2ccccc2)O1 |  | > 100 | > 100 | > 100 | > 100 | > 100 |  | > 100 |  | > 100 |  |  |  |  |  |  |
| Cc1c(C(=O)O)n2c(=S)[nH]nc2c2ccccc12 | > 100 | > 100 |  | > 100 | > 100 | > 100 | > 100 | > 100 | > 100 | > 100 |  |  |  |  |  |  |
| Nc1nc(Cl)cc(OCC2(CO)CCCC2)n1 | > 100 |  | > 100 | > 100 | > 100 |  | > 100 | > 100 |  | > 100 |  |  |  |  |  |  |
| COc1cc(CC(C)=O)cc(OC)c1 | > 100 | > 100 | > 100 | 78.5 |  |  | > 100 | > 100 | > 100 | > 100 |  |  |  |  |  |  |
| C/C=C1/CN2CCC34c5ccccc5N(C)C23C2CC1C4(C(=O)OC)C(OC(C)=O)O2 (stereo unspecified) | > 100 | > 100 |  | > 100 | > 100 | > 100 | > 100 | > 100 | > 100 | > 100 |  |  |  |  |  |  |
